Measured values published in US20230136562A1, “SPIROUREA DERIVATIVES” (Idorsia Pharmaceuticals Ltd, priority 2020, published 2023).
Like-named read-outs stand apart in the source and are kept apart here.

Tested on: primary neuronal cultures from embryonic rat brains
Test: Rat oscillation assay (FLIPR, neuronal calcium oscillations)
Assay type: cell-based
Settings: Rattus norvegicus
Procedure: A) Rat Oscillation Assay:
This assay is a functional phenotypic assay designed to mimic epileptic seizures using primary neuronal cultures from embryonic rat brains, which form a functional neuronal network that generate synchronized intracellular calcium concentration oscillations when cultured at high density in 384-well plate. The epileptic phenotype is induced by incubating the neurons in magnesium-free assay buffer, that results in increased probability of NMDA receptor activation, leading to an increased frequency and amplitude of intracellular calcium oscillations. Once neurons are incubated with the calcium indicator dye Fluo-8 AM (Tebu-bio), neuronal calcium oscillations can be monitored in real time using FLIPR® Tetra (fluorometric plate reader, Molecular Devices). With these recordings, the effect of anti-epileptic drugs can be quantified. The anti-epileptic effect of compounds, which activate directly or indirectly the Kv7 channels can be modulated by the Kv7 channel blocker XE-991. The assay was performed as described previously (Pacico N, Mingorance-Le Meur A. New In Vitro Phenotypic Assay for Epilepsy: Fluorescent Measurement of Synchronized Neuronal Calcium Oscillations. PLoS ONE 9(1) 2014) with modifications described hereafter.
Animal care followed standard procedures in accordance with swiss institutional guidelines. Dissociated neuronal cultures were obtained from cerebral cortices of embryonic Wistar rats at embryonic stage E18 (Charles River). The uterine horns were removed by caesarian surgery from deeply anesthetized rats (Isofurane) and sacrificed by decapitation. The embryos were decapitated by closing forceps. The brains were isolated and dissected one by one in ice-cold PBS (Life Technologies) under optical control using a binocular. Meninges, olfactory bulbs, and basal ganglia were removed. Cortical hemispheres (still including the hippocampus) were cut in small pieces with tweezers and placed on ice in pre-chilled Hibernate-E medium (Life technology). The hemispheres were then incubated in 10 mL of Hibernate-E containing 15 U/mL papain (Worthington) for 25 min at 30° C. with gentle mixing every 10 min. Genomic DNA was then digested by prolonging the incubation during 10 min at 37° C. in presence of 4 U/mL rDNase I (Ambion). The obtained suspension was then centrifuged at 800 g for 5 min and the cell pellet was resuspended in 2 mL Hibernate-E and gently dissociated by pipetting up and down 10 times with a plastic Pasteur pipette resulting in a homogenous cell suspension. This suspension was immediately filtered through a 70 µm cell strainer (MACS® SmartStrainer, Miltenyi), collected in 10 mL Hibernate-E and centrifuged at 800 g for 5 min. The cell pellet was resuspended in Neurobasal medium, supplemented with 2% B-27, 0.5 mM Glutamax-I, 100 U/mL penicillin, 100 µg/mL streptomycin (Life Technologies) and diluted at the final concentration of 300′000 cells/mL. One day before plating the cells, 384-well plates were coated with 25 μL/well of 0.1% poly-L-lysine solution (Sigma), incubated overnight at 37° C., washed two times with sterile distilled water and allowed to dry at room temperature for >2 h. The neurons were seeded at a density of 15′000 cells/well in 50 μL/well in a 384-well black, clear-bottomed plates (Corning) and subsequently maintained in an incubator at 37° C., 5% CO2 and 95% humidity for 8 to 10 days. After 3 and 7 days, 40% of media was renewed under sterile conditions.
Protocol Rat Oscillation Assay
Neurons seeded in the assay plates were washed with Hank's balanced salt solution (HBSS) devoid of Ca^2+ and Mg^2+, supplemented with 20 mM HEPES (Life Technologies) and 2 mM CaCl2 (Sigma), pH 7.4 (hereafter called Assay buffer) using a Biotek EL406 plate washer. Neurons were loaded with 1 μM Fluo-8 AM in Assay buffer for 15 min at 37° C., 5% CO2. […]

[1] = 20 min, AUC of fluorescence measured 20 min after compound addition, read-out: FLIPR: IC50 [nM] 20 min
[2] = Acute phase, ratio of AUC fluorescence before and after compound addition, read-out: FLIPR: IC50 [nM] acute

What does the source list for `COc1c(C(C)NC(=O)NC2CC3(CCC3)C2)cccc1C(F)(F)F` (racemic) [Example 21, (±)-1-[1-(2-Methoxy-3-trifluoromethyl-phenyl)-ethyl]-3-spiro[3.3]hept-2-yl-urea]?
IC50 [1]: 72 nM; IC50 [2]: 112 nM

Which IC50 [1] does the source give for `CC(Oc1nccc(CNC(=O)NC2CC3(CCC3)C2)n1)C(F)(F)F` (racemic) [Example 118, (±)-1-Spiro[3.3]hept-2-yl-3-[2-(2,2,2-trifluoro-1-methyl-ethoxy)-pyrimidin-4-ylmethyl]-urea] here?
The IC50 was 81 nM.

What about the IC50 [2] of the same molecule?
Its IC50 is 116 nM.

With `Cc1nc(OCC(F)(F)F)cc(C(C)NC(=O)NC2CC3(CC3)C2)n1` (racemic) [Example 145, (±)-1-{1-[2-Methyl-6-(2,2,2-trifluoro-ethoxy)-pyrimidin-4-yl]-ethyl}-3-spiro[2.3]hex-5-yl-urea] as the molecule, how does the IC50 [1] read?
The IC50 was 80 nM.

What about the IC50 [2] of the same molecule?
The IC50 was 57 nM.

With `CC(NC(=O)NC1CC2(CCC2)C1)c1cccc(OCC(F)(F)F)c1` (racemic) [Example 90, (±)-1-Spiro[3.3]hept-2-yl-3-{1-[3-(2,2,2-trifluoro-ethoxy)-phenyl]-ethyl}-urea] as the molecule, how does the IC50 [1] read?
Its IC50 is 2.7 nM.

And the IC50 [2]?
The IC50 was 4 nM.

`O=C(NCc1nccc(OCC(F)(F)F)n1)NC1CC2(CCC2)C1` [Example 112, 1-Spiro[3.3]hept-2-yl-3-[4-(2,2,2-trifluoro-ethoxy)-pyrimidin-2-ylmethyl]-urea] was tested. Which IC50 [1] did it give?
Its IC50 is 1420 nM.

What about the IC50 [2] of the same molecule?
The IC50 was 1100 nM.

Which results are given for `Cc1cc(OCC(F)(F)F)cc(C(C)NC(=O)NC2CC3(CCC3)C2)c1` (racemic) [Example 32, (±)-1-{1-[3-Methyl-5-(2,2,2-trifluoro-ethoxy)-phenyl]-ethyl}-3-spiro[3.3]hept-2-yl-urea]?
IC50 [1]: 14 nM; IC50 [2]: 24 nM

How did the IC50 [1] turn out when `CC(NC(=O)NC1CC2(CC2)C1)c1cccc(OC(F)F)c1` (racemic) [Example 124, (±)-1-[1-(3-Difluoromethoxy-phenyl)-ethyl]-3-spiro[2.3]hex-5-yl-urea] was run?
The IC50 was 280 nM.

And the IC50 [2]?
The IC50 was 69 nM.

How did the IC50 [1] turn out when `CN(C)CC(Oc1cc(CNC(=O)NC2CC3(CCC3)C2)ccn1)C(F)(F)F` (racemic) [Example 106, (±)-1-[2-(1-Dimethylaminomethyl-2,2,2-trifluoro-ethoxy)-pyridin-4-ylmethyl]-3-spiro[3.3]hept-2-yl-urea] was run?
The IC50 was 757 nM.

And the IC50 [2]?
The IC50 was 535 nM.

Which results are given for `O=C(NCc1cccc(S(F)(F)(F)(F)F)c1)NC1CC2(CC2)C1` [Example 130, 1-(3-(pentafluoro-λ^6-sulfaneyl)benzyl)-3-(spiro[2.3]hexan-5-yl)urea]?
IC50 [1]: 42 nM; IC50 [2]: 30 nM

`C[C@@H](NC(=O)NC1CC2(CCC2)C1)c1ccnc(OC(F)F)c1` (single isomer, unassigned) [Example 167] was tested. Which IC50 [1] did it give?
The IC50 was 1750 nM.

What about the IC50 [2] of the same molecule?
Its IC50 is 1280 nM.

Which results are given for `CN(C)CC(NC(=O)NC1CC2(CCC2)C1)c1ccnc(OCC(F)(F)F)c1` (racemic) [Example 94, (±)-1-{2-Dimethylamino-1-[2-(2,2,2-trifluoro-ethoxy)-pyridin-4-yl]-ethyl}-3-spiro[3.3]hept-2-yl-urea]?
IC50 [1]: 117 nM; IC50 [2]: 197 nM

What does the source list for `O=C(NCc1cccc(C(F)(F)F)c1)NC1CC2(C1)CC2(F)F` (stereo not drawn) [Example 3, 1-(1,1-Difluoro-spiro[2.3]hex-5-yl)-3-(3-trifluoromethyl-benzyl)-urea]?
IC50 [1]: 186 nM; IC50 [2]: 122 nM

What does the source list for `CC(NC(=O)NC1CC2(CC2)C1)c1cccc2c1OC(F)(F)O2` (racemic) [Example 121, (±)-1-[1-(2,2-Difluoro-benzo[1,3]dioxol-4-yl)-ethyl]-3-spiro[2.3]hex-5-yl-urea]?
IC50 [1]: 1210 nM; IC50 [2]: 990 nM

`O=C(NC1CC2(CCC2)C1)NC1COc2ccc(OC(F)(F)F)cc21` (racemic) [Example 11, (±)-1-Spiro[3.3]hept-2-yl-3-(5-trifluoromethoxy-2,3-dihydro-benzofuran-3-yl)-urea] was tested. Which IC50 [1] did it give?
The IC50 was 171 nM.

And the IC50 [2]?
Its IC50 is 246 nM.

What does the source list for `O=C(NCc1cccc2c1OC(F)(F)O2)NC1CC2(CCC2)C1` [Example 46, 1-(2,2-Difluoro-benzo[1,3]dioxol-4-ylmethyl)-3-spiro[3.3]hept-2-yl-urea]?
IC50 [1]: 285 nM; IC50 [2]: 234 nM

How did the IC50 [1] turn out when `COc1c(CNC(=O)NC2CC3(CC3)C2)cccc1C(F)(F)F` [Example 128, 1-(2-Methoxy-3-trifluoromethyl-benzyl)-3-spiro[2.3]hex-5-yl-urea] was run?
The IC50 was 950 nM.

And the IC50 [2]?
Its IC50 is 981 nM.

What does the source list for `O=C(NC1CC2(CCC2)C1)NC1(c2cccc(OC(F)F)c2)CC1` [Example 7, 1-[1-(3-Difluoromethoxy-phenyl)-cyclopropyl]-3-spiro[3.3]hept-2-yl-urea]?
IC50 [1]: 142 nM; IC50 [2]: 85 nM

What does the source list for `C[C@@H](NC(=O)NC1CC2(CCC2)C1)c1cccc(OC(F)F)c1` (single isomer, unassigned) [Example 174]?
IC50 [1]: 2490 nM; IC50 [2]: 2870 nM

Which results are given for `O=C(NCc1cc(F)cc(C(F)(F)F)c1)NC1CC2(CC2)C1` [Example 142, 1-(3-Fluoro-5-trifluoromethyl-benzyl)-3-spiro[2.3]hex-5-yl-urea]?
IC50 [1]: 277 nM; IC50 [2]: 204 nM

How did the IC50 [1] turn out when `Cc1nc(OCC(F)(F)F)cc(C(C)NC(=O)NC2CC3(CCC3)C2)n1` (racemic) [Example 68, (±)-1-{1-[2-Methyl-6-(2,2,2-trifluoro-ethoxy)-pyrimidin-4-yl]-ethyl}-3-spiro[3.3]hept-2-yl-urea] was run?
Its IC50 is 18 nM.

What about the IC50 [2] of the same molecule?
Its IC50 is 18 nM.

How did the IC50 [1] turn out when `CC(NC(=O)NC1CC2(CCC2)C1)c1ccnc(OC(F)(F)F)c1` (racemic) [Example 97, (±)-1-Spiro[3.3]hept-2-yl-3-[1-(2-trifluoromethoxy-pyridin-4-yl)-ethyl]-urea] was run?
Its IC50 is 170 nM.

What about the IC50 [2] of the same molecule?
Its IC50 is 53 nM.

How did the IC50 [1] turn out when `O=C(NCc1cccc(C(F)F)c1)NC1CC2(CC2)C1` [Example 158, 1-(3-Difluoromethyl-benzyl)-3-spiro[2.3]hex-5-yl-urea] was run?
The IC50 was 414 nM.

What about the IC50 [2] of the same molecule?
Its IC50 is 390 nM.

What does the source list for `COCC1c2cccc(OCC(F)(F)F)c2CCN1C(=O)NC1CC2(CCC2)C1` (racemic) [Example 54, (±)-1-Methoxymethyl-5-(2,2,2-trifluoro-ethoxy)-3,4-dihydro-1H-isoquinoline-2-carboxylic acid spiro[3.3]hept-2-ylamide]?
IC50 [1]: 244 nM; IC50 [2]: 207 nM

Which IC50 [1] does the source give for `CCOCCC(NC(=O)NC1CC2(CCC2)C1)c1cccc(C(F)(F)F)c1` (racemic) [Example 73, (±)-1-[3-Ethoxy-1-(3-trifluoromethyl-phenyl)-propyl]-3-spiro[3.3]hept-2-yl-urea] here?
The IC50 was 244 nM.

And the IC50 [2]?
The IC50 was 305 nM.

How did the IC50 [1] turn out when `CC(NC(=O)NC1CC2(CC2)C1)c1cccc(C(F)(F)F)c1` (racemic) [Example 140, (±)-1-Spiro[2.3]hex-5-yl-3-[1-(3-trifluoromethyl-phenyl)-ethyl]-urea] was run?
Its IC50 is 59 nM.

And the IC50 [2]?
Its IC50 is 27 nM.

What does the source list for `C[C@H](NC(=O)NC1CC2(CC2)C1)c1ccnc(OC(F)F)c1` (single isomer, unassigned) [Example 189]?
IC50 [1]: 196 nM; IC50 [2]: 221 nM

What does the source list for `O=C(NC1CC2(CCC2)C1)N[C@@H](CO)c1cccc(C(F)(F)F)c1` (single isomer, unassigned) [Example 184]?
IC50 [1]: 5.7 nM; IC50 [2]: 8.8 nM

What does the source list for `CC(NC(=O)NC1CC2(CCC2)C1)c1cc(C(F)(F)F)ccc1Br` (racemic) [Example 19, (±)-1-[1-(2-Bromo-5-trifluoromethyl-phenyl)-ethyl]-3-spiro[3.3]hept-2-yl-urea]?
IC50 [1]: 274 nM; IC50 [2]: 337 nM

`O=C(NC1CC2(CCC2)C1)NC(CCO)c1cccc(C(F)(F)F)c1` (racemic) [Example 74, (±)-1-[3-Hydroxy-1-(3-trifluoromethyl-phenyl)-propyl]-3-spiro[3.3]hept-2-yl-urea] was tested. Which IC50 [1] did it give?
The IC50 was 30 nM.

And the IC50 [2]?
Its IC50 is 27 nM.

For `O=C(NC1CC2(CCC2)C1)N[C@H](c1cccc(C(F)(F)F)c1)c1nc[nH]n1` (single isomer, unassigned) [Example 179], which IC50 [1] is on record?
Its IC50 is 13 nM.

And the IC50 [2]?
The IC50 was 24 nM.
